Measured values from patent US20070141086A1 (priority 2003, published 2007).

Test system: virulent culture of M. haemolytica (Oklahoma State strain)
Assay type: in vivo, beef calves
Conditions: conclusion over vaccination and challenge study in calves
Protocol: For the vaccination challenge, 5 ml of a virulent culture of M. haemolytica (Oklahoma State strain) was administered by transthoracic injection into the right and left caudal lung lobes of each calf (10 ml of culture per calf) on Day 34 of the study. The inoculum contained approximately 5.6×10^8 CFU/ml.
One animal in T01 died immediately following challenge due to pulmonary hemorrhage as a result of challenge administration; thus its lung lesion data was excluded from the analysis. One animal in T03 was found dead on Day 37 as a result of severe pneumonia but was necropsied and its lung data was analyzed along with the data from the other animals. There were no significant differences between the treatment groups (P>0.05).

For Tulathromycin, which “Overall adjuvant function / immune response indicators (antibody production, attitude, respiratory effort, lung lesions)” value is on record?
The value was “appeared to effectively replace the adjuvant”.
